Test results taken from US6410040B1, “Polymeric compounds and methods of formulating same” (Chemeq Limited, priority 1998, dated 2002).
Each block holds one compound with its values, some of them ahead of it.

Experiments:
[1] = Migration of sunscreen agents across a membrane model for skin; assay type: in vitro ADME; conditions: solution in ethanol
Method: The effects of the presence of poly(2-propenal, 2-propenoic acid) on the migration of various agents across a model for skin were studied as follows. Results are shown in Table 8: In a special apparatus, the samples were applied to one side of a 0.45 micron cellulose acetate membrane in contact with, on the other side, a stirred solution of ethanol. “After” 1.5 hours, the spectrum of the “ethanol” was compared with the “Before” solution of sample in the same solvent: […]

Ps. aeruginosa = assay: Minimal Kill Concentration Test; assay type: cell-based
Method: (§1) 2. Minimal Kill Concentration Test
(§2) Make serial 1 in 2 dilutions of the sample using sterile 0.85% saline. Add 0.1 mL of suspension of test organism to the dilution. Incubate at 37° C. for 24 hours. Subculture 1 mL from each tube into 10 mL sterile nutrient broth plus TWEEN 80; incubate at 37° C. for 24 hours.
(§3) If the Minimum Kill Concentrations of compounds A, B, and a mixture of A and B are a, b and m, respectively, then there is synergy (“S”) upon mixing A and B if
(§4) ie. S=(a+b)/m>1 for synergy

S. aureus = assay: Minimal Kill Concentration Test; assay type: cell-based
Method: as §1, §2, §3, §4

A. niger = assay: Minimal Kill Concentration Test; assay type: cell-based; conditions: Experiment 1
Method: as §1, §2, §3, §4

B. cereus = assay: Minimal Kill Concentration Test; assay type: cell-based; conditions: Experiment 1
Method: as §1, §2, §3, §4

C. albicans = assay: Minimal Kill Concentration Test; assay type: cell-based; conditions: Experiment 1
Method: as §1, §2, §3, §4

E. coli = assay: Minimal Kill Concentration Test; assay type: cell-based; conditions: Experiment 1
Method: as §1, §2, §3, §4

P. vulgaris = assay: Minimal Kill Concentration Test; assay type: cell-based; conditions: Experiment 1
Method: as §1, §2, §3, §4

- max (UV spectrum), Before [1]: max = 310 nm
SMILES: CCCCC(CC)COC(=O)C=Cc1ccc(OC)cc1 (stereo not shown) [octyl methoxy cinnimate]

SMILES: O=CCCCC=O [glutaraldehyde]
- Minimum Kill Concentration Ps. aeruginosa (Ps. aeruginosa; Experiment 2): 155 p.p.m.
- Minimum Kill Concentration S. aureus (S. aureus; Experiment 2): 80 p.p.m.

SMILES: O=C(O)CN(CCN(CC(=O)O)CC(=O)O)CC(=O)O [EDTA, ethylene diamine tetra acetic acid]
- Minimum Kill Concentration A. niger (A. niger): 1250 p.p.m.
- Minimum Kill Concentration B. cereus (B. cereus): 80 p.p.m.
- Minimum Kill Concentration C. albicans (C. albicans): 155 p.p.m.
- Minimum Kill Concentration E. coli (E. coli): 80 p.p.m.
- Minimum Kill Concentration P. vulgaris (P. vulgaris): 155 p.p.m.
- Minimum Kill Concentration Ps. aeruginosa (Ps. aeruginosa; Experiment 1): 625 p.p.m.
- Minimum Kill Concentration S. aureus (S. aureus; Experiment 1): 625 p.p.m.

SMILES: Oc1ccccc1-c1ccccc1.[Na] [phenol, orthophenylphenol, sodium salt]
- Minimum Kill Concentration Ps. aeruginosa (Ps. aeruginosa; Experiment 2): >10000 p.p.m.
- Minimum Kill Concentration S. aureus (S. aureus; Experiment 2): 20 p.p.m.

- max (UV spectrum), Before [1]: max = 315 nm
SMILES: CCCCC(CC)COC(=O)c1ccc(N(C)C)cc1 (stereo not shown) [octyl dimethyl p-aminobenzoate]
